Biological target: T1, human DGAT2 (Homo sapiens, UniProt Q96PD7)
T1 construct: FLAG (DYKDDDDK); made in house; host or cells: Sf-21 insect cells (BacPAK baculovirus system); membrane fraction used
T1 sequence (Q96PD7 1-388): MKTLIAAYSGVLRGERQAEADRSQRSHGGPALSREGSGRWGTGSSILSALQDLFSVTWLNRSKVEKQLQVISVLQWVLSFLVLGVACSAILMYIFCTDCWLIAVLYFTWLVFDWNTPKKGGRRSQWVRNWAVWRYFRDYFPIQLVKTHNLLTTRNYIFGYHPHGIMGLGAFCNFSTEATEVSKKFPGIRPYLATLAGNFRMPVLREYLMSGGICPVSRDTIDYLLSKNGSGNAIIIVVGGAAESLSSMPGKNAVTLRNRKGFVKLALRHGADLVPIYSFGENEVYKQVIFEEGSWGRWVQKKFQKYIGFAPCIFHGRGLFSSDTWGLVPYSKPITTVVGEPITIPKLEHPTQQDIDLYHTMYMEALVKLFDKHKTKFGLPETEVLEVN
Test: DGAT2 enzyme activity inhibition, Phospholipid FlashPlate SPA
Assay type: biochemical
Conditions: recombinant human DGAT2 membrane protein from Sf-21 cells; inhibition of [14C]-TG production; 37° C.
Procedure: In order to prepare the pBacPAK9-DGAT2, which is DGAT2 expression vector, the human DGAT2 gene amplified by polymerase chain reaction (PCR) was cloned into the EcoR1 and Xho1 sites of the pBacPAK9 (clonctech) vector. The nucleotide sequence of the primers used in PCR was the forward primer 5′ […] (SEQ. ID. NO: 2). The composition of the reaction solution was to contain 50 ng of cDNA clone (OriGene), 200 μM of dATP, dCTP, dTTP, dGTP, 200 nM of each primer, 1 unit of Tag DNA Polymerase (Toyobo), 1×PCR buffer, and the final volume was adjusted to 20 μl. The reaction conditions were denatured at 95° C. for 5 minutes, followed by 30 times of 94° C. for 20 seconds, 60° C. for 20 seconds, and 72° C. for 90 seconds, followed by further reaction at 72° C. for 7 minutes.
Recombinant human DGAT2 protein was expressed in Sf-21 cells, which are insect cells, by using the BacPack baculovirus expression system (Clontech). The brief manufacturing process is as follows. First, the pBacPAK9-DGAT2 expression vector was transfected with BacPAK6 virus DNA (Bsu36I digest) into sf21 cells using Bacfectin to prepare a recombinant DGAT2 expressing baculovirus. The thus prepared baculovirus was infected with Sf-21 cells at 10 MOI (multiplicity of infection), and after 72 hours, infected insect cells were collected and membrane proteins were isolated. For membrane protein separation, the cell pellet was dissolved in a sucrose solution containing 250 mM sucrose, 10 mM Tris (pH 7.4), and 1 mM ethylenediamine-tetraacetic acid (EDTA), and then homogenized by using a dounce homogenizer, and the supernatant was taken by centrifuging at 600×g for 15 minutes, and centrifuged at 100,000×g for 1 hour to discard the supernatant, and the remaining pellet was resuspended in 20 mM HEPES buffer (pH 7.4). The prepared DGAT2 overexpressing membrane protein was dispensed in 100 μl and stored at −80° C. until use. Protein concentration was quantified by using the BCA Protein Assay Kit (Thermo Scientific).
In vitro DGAT2 analysis was performed using a Phospholipid Flash Plate (PerkinElmer) based on the principle of SPA (Scintilation Proximity Assay). First, DGAT2 inhibition compounds serially diluted 5 times from 3 nM to 10 μM (final concentration, 1% DMSO) were mixed in a buffer solution containing 2 μg DGAT2-membrane protein and 20 mM HEPES, 20 mM MgCl2, 1 mg/mL BSA, 50 μM 1,2 sn-oleoyl glycerol (Sigma), put in a 96-well flash plate (FlashPlate) and reacted at 37° C. for 20 minutes, and then 1 μM [14C] ole oil CoA (PerkinElmer, NEC651050UC) was added to be a final volume of 100 μL and further reacted at 37° C. for 15 minutes. After the enzymatic reaction was completed, 100 μL of isopropanol was added, the plate was sealed with a film, and the plate was shaken slowly in a plate shaker. The next day, the amplified scintillation signal (cpm) in Topcounter (Packard) was measured to measure the degree of production of [14C]-labeled triacyl glycerol (TG) as a reaction product. The measured value when the compound was not treated was used as a positive control, and the measured value of the compound treated group was calculated as a relative % to measure the inhibition effect of the compound on TG production.

Row | SMILES | IC50
1 | CCOc1ccccc1O[C@@H]1CCCN(c2cncc(Nc3ccccc3)n2)C1 [Example 24, (R)—N-6-(3-(2-ethoxyphenoxy)piperidin-1-yl)-N-phenylpyrazin-2-amine] | 5500 nM
2 | CCOc1ccccc1O[C@@H]1CCCN(c2cncc(Nc3cccc(C(C)(C)C(=O)O)n3)n2)C1 [Example 50, (R)-2-(6-((6-(3-(2-ethoxyphenoxy)piperidin-1-yl)pyrazin-2-yl)amino)pyridin-2-yl)-2-methylpropanoic Acid] | 7200 nM
3 | CCOc1ccccc1O[C@@H]1CCCN(c2cncc(Nc3cccc(Oc4ccc(C(C)(C)C(=O)O)cc4)n3)n2)C1 [Example 93, (R)-2-(4-((6-((6-(3-(2-ethoxyphenoxy)piperidin-1-yl)pyrazin-2-yl)amino)pyridin-2-yl)oxy)phenyl)-2-methylpropanoic Acid] | 170 nM
4 | CCOc1cccnc1O[C@@H]1CCCN(c2ccnc(Nc3cccc(-c4cccc(CC(C)(C)C(=O)O)c4)n3)n2)C1 [Example 68, (R)-3-(3-(6-((4-(3-((3-ethoxypyridin-2-yl)oxy)piperidin-1-yl)pyrimidin-2-yl)amino)pyridin-2-yl)phenyl)-2,2-dimethylpropanoic Acid] | 3300 nM
5 | CCOc1ccccc1O[C@@H]1CCCN(c2cccc(Nc3cccc(-c4cccc(CC(C)(C)C(=O)O)c4)n3)n2)C1 [Example 65, (R)-3-(3-(6-((6-(3-(2-ethoxyphenoxy)piperidin-1-yl)pyridin-2-yl)amino)pyridin-2-yl)phenyl)-2,2-dimethylpropanoic Acid] | 1500 nM
6 | CCOc1ccccc1O[C@@H]1CCCN(c2cncc(Nc3nccc(N4CCCC(C(=O)O)C4)n3)n2)C1 (stereo partly drawn) [Example 120, 1-(2-((6-((R)-3-(2-ethoxyphenoxy)piperidin-1-yl)pyrazin-2-yl)amino)pyrimidin-4-yl)piperidine-3-carboxylic Acid] | 890 nM
7 | CCOc1ccccc1O[C@@H]1CCCN(c2cncc(Nc3cccc(-c4ccc(NC(C)(C)C(=O)O)cc4)n3)n2)C1 [Example 77, (R)-2-((4-(6-((6-(3-(2-ethoxyphenoxy)piperidin-1-yl)pyrazin-2-yl)amino)pyridin-2-yl)phenyl)amino)-2-methylpropanoic Acid] | 250 nM
8 | CCOc1ccccc1O[C@@H]1CCCN(c2cncc(Nc3cccc(N4CCC[C@H](OCC(=O)O)C4)n3)n2)C1 [Example 59] | 3700 nM
9 | CCOc1ccccc1O[C@@H]1CCCN(c2cncc(Nc3nccc(-c4cccc(OC(C)(C)C(=O)O)c4)n3)n2)C1 [Example 176, (R)-2-(3-(2-((6-(3-(2-ethoxyphenoxy)piperidin-1-yl)pyrazin-2-yl)amino)pyrimidin-4-yl)phenoxy)-2-methylpropanoic Acid] | 590 nM
10 | CCOc1ccccc1O[C@@H]1CCCN(c2cncc(Nc3cc(C(C)(C)COCCOC)no3)n2)C1 [Example 8, (R)—N-(6-(3-(2-ethoxyphenoxy)piperidin-1-yl)pyrazin-2-yl)-3-(1-(2-methoxyethoxy)-2-methylpropan-2-yl)isooxazol-5-amine] | 550 nM
11 | CCOc1ccccc1O[C@@H]1CCCN(c2cncc(Nc3ccc(CC(=O)NCc4ccncc4)cc3)n2)C1 [Example 26, (R)-2-(4-((6-(3-(2-ethoxyphenoxy)piperidin-1-yl)pyrazin-2-yl)amino)phenyl)-N-(pyridin-4-ylmethyl)acetamide] | 6700 nM
12 | CCOc1ccccc1O[C@@H]1CCCN(c2cncc(Nc3nc4ccc(CCC(=O)O)cc4o3)n2)C1 [Example 18, (R)-3-(2-((6-(3-(2-ethoxyphenoxy)piperidin-1-yl)pyrazin-2-yl)amino)benzo[d]oxazol-6-yl)propanoic Acid] | 1100 nM
13 | CCOc1ccccc1O[C@@H]1CCCN(c2cncc(Nc3nc4ccccc4s3)n2)C1 [Example 5, (R)—N-(6-(3-(2-ethoxyphenoxy)piperidin-1-yl)pyrazin-2-yl)benzo[d]thiazol-2-amine] | ≥ 13000 nM
14 | CCOc1cccnc1O[C@@H]1CCCN(c2cncc(Nc3cccc(-c4cc(OC(C)(C)C(=O)O)ccc4F)n3)n2)C1 [Example 85, (R)-2-(3-(6-((6-(3-((3-ethoxypyridin-2-yl)oxy)piperidin-1-yl)pyrazin-2-yl)amino)pyridin-2-yl)-4-fluorophenoxy)-2-methylpropanoic Acid] | 220 nM
15 | CCOc1ccccc1O[C@@H]1CCCN(c2cncc(Nc3cc(C(F)(F)F)cc(-c4cccc(CC(C)(C)C(=O)O)c4)n3)n2)C1 [Example 110, (R)-3-(3-(6-((6-(3-(2-ethoxyphenoxy)piperidin-1-yl)pyrazin-2-yl)amino)-4-(trifluoromethyl)pyridin-2-yl)phenyl)-2,2-dimethylpropanoic Acid] | 170 nM
16 | CCOc1cccnc1O[C@@H]1CCCN(c2cncc(Nc3ccnc(-c4cccc(OC(C)(C)C(=O)O)c4)n3)n2)C1 [Example 175, (R)-2-(3-(4-((6-(3-((3-ethoxypyridin-2-yl)oxy)piperidin-1-yl)pyrazin-2-yl)amino)pyrimidin-2-yl)phenoxy)-2-methylpropanoic Acid] | 1100 nM
17 | CCOc1ccccc1O[C@@H]1CCCN(c2cncc(Nc3nccc(N4CCC[C@@H](OC(C)(C)C(=O)O)C4)n3)n2)C1 [Example 133, 2-(((R)-1-(2-((6-((R)-3-(2-ethoxyphenoxy)piperidin-1-yl)pyrazin-2-yl)amino)pyrimidin-4-yl)piperidin-3-yl)oxy)-2-methylpropanoic Acid] | 3600 nM
18 | CCOc1cccnc1O[C@@H]1CCCN(c2ccnc(Nc3nccc(C(C)(C)C(=O)O)n3)n2)C1 [Example 116] | 410 nM
19 | CCOc1cccnc1O[C@@H]1CCCN(c2cncc(Nc3nccc(Oc4ccc(CC(=O)O)cc4)n3)n2)C1 [Example 163] | 860 nM
20 | CCOc1ccccc1O[C@@H]1CCCN(c2cncc(Nc3nc4cc(Cl)ccc4o3)n2)C1 [Example 11, (R)-5-chloro-N-(6-(3-(2-ethoxyphenoxy)piperidin-1-yl)pyrazin-2-yl)benzo[d]oxazol-2-amine] | 59 nM
21 | CCOc1ccccc1O[C@@H]1CCCN(c2cncc(Nc3cccc(-c4ccc(C(C)(C)C(=O)O)cc4)n3)n2)C1 [Example 61, (R)-2-(4-(6-((6-(3-(2-ethoxyphenoxy)piperidin-1-yl)pyrazin-2-yl)amino)pyridin-2-yl)phenyl)-2-methylpropanoic Acid] | 91 nM
22 | CCOc1ccccc1O[C@@H]1CCCN(c2nc(Nc3cccc(-c4cccc(CC(C)(C)C(=O)O)c4)n3)ncc2C(F)(F)F)C1 [Example 71, (R)-3-(3-(6-((4-(3-(2-ethoxyphenoxy)piperidin-1-yl)-5-(trifluoromethyl)pyrimidin-2-yl)amino)pyridin-2-yl)phenyl)-2,2-dimethylpropanoic Acid] | 670 nM
23 | CCOc1ccccc1O[C@@H]1CCCN(c2ncc(C(F)(F)F)c(Nc3cccc(-c4cccc(CC(C)(C)C(=O)O)c4)n3)n2)C1 [Example 70, (R)-3-(3-(6-((2-(3-(2-ethoxyphenoxy)piperidin-1-yl)-5-(trifluoromethyl)pyrimidin-4-yl)amino)pyridin-2-yl)phenyl)-2,2-dimethylpropanoic Acid] | > 10000 nM
24 | CCOc1cccnc1O[C@@H]1CCCN(c2cncc(Nc3nc(-c4cccc(CC(C)(C)C(=O)O)c4)ccc3F)n2)C1 [Example 101, (R)-3-(3-(6-((6-(3-((3-ethoxypyridin-2-yl)oxy)piperidin-1-yl)pyrazin-2-yl)amino)-5-fluoropyridin-2-yl)phenyl)-2,2-dimethylpropanoic Acid] | 190 nM

Source: patent US12630528B2, “Amino aryl derivative useful as diacylglycerol acyltransferase 2 inhibitor and use thereof” (LG CHEM, LTD., priority 2019, dated 2026)
